The source of these data is US11192867B2, “Microbiocidal oxadiazole derivatives” (SYNGENTA PARTICIPATIONS AG, priority 2016, dated 2021).

Assay [1] deals with Puccinia recondita f. sp. Tritici. The experiment in a line: Fungicidal activity against Puccinia recondita f. sp. Tritici / wheat / leaf disc curative (brown rust). Format: in vivo. As to conditions: foliar, 24 h, 200 ppm in the applied formulation, wheat leaf segments cv. Kanzler, applied 1 day after inoculation, vs untreated control, read-out: disease control. Here is the method:
(§1) Leaf disks or leaf segments of various plant species are cut from plants grown in a greenhouse. The cut leaf disks or segments are placed in multiwell plates (24-well format) onto water agar. The leaf disks are sprayed with a test solution before (preventative) or after (curative) inoculation. Compounds to be tested are prepared as DMSO solutions (max. 10 mg/ml) which are diluted to the appropriate concentration with 0.025% Tween20 just before spraying. The inoculated leaf disks or segments are incubated under defined conditions (temperature, relative humidity, light, etc.) according to the respective test system. A single evaluation of disease level is carried out 3 to 14 days after inoculation, depending on the pathosystem. Percent disease control relative to the untreated check leaf disks or segments is then calculated.
Wheat leaf segments cv. Kanzler are placed on agar in multiwell plates (24-well format). The leaf segments are then inoculated with a spore suspension of the fungus. Plates were stored in darkness at 19° C. and 75% relative humidity. The formulated test compound diluted in water was applied 1 day after inoculation. The leaf segments were incubated at 19° C. and 75% relative humidity under a light regime of 12 hours light/12 hours darkness in a climate cabinet and the activity of a compound was assessed as percent disease control compared to untreated when an appropriate level of disease damage appears in untreated check leaf segments (6 to 8 days after application).
The following compounds at 200 ppm in the applied formulation give at least 80% disease control in this test when compared to untreated control leaf disks under the same conditions, which show extensive disease development.

The test system of assay [2] is Phakopsora pachyrhizi. As to the kind of experiment: Fungicidal activity against Phakopsora pachyrhizi / soybean / leaf disc preventative (Asian soybean rust). Format: in vivo. The conditions noted are these: foliar, 200 ppm in the applied formulation, soybean leaf disks, vs untreated control, read-out: disease control. Here is the method:
as §1, with “calculated. Soybean leaf disks are placed on water agar in multiwell plates (24-well format) and sprayed with the formulated test compound diluted in water. One day after application leaf discs are inoculated by spraying a spore suspension on the lower leaf surface. After an incubation period in a climate cabinet of 24-36 hours in darkness at 20° C. and 75% rh leaf disc are kept at 20° C. with 12 hours light/12 hours and 75% rh. The activity of a compound is assessed as percent disease control compared to untreated when an appropriate level of disease damage appears in untreated check leaf disks (12 to 14 days after application). The following compounds at 200 ppm in the applied formulation give at least 80% disease control in this test when compared to untreated control leaf disks under the same conditions, which show extensive disease development.” for “calculated.”

The test system of assay [3] is Puccinia recondita f. sp. Tritici. As to the kind of experiment: Fungicidal activity against Puccinia recondita f. sp. Tritici / wheat / leaf disc preventative (brown rust). Format: in vivo. As to conditions: foliar, 200 ppm in the applied formulation, wheat leaf segments cv. Kanzler, inoculated 1 day after application, vs untreated control, read-out: disease control. Here is the method: as §1, with “calculated. Wheat leaf segments cv. Kanzler were placed on agar in multiwell plates (24-well format) and sprayed with the formulated test compound diluted in water. The leaf disks were inoculated with a spore suspension of the fungus 1 day after application. The inoculated leaf segments were incubated at 19° C. and 75% relative humidity (rh) under a light regime of 12 hours light/12 hours darkness in a climate cabinet and the activity of a compound was assessed as percent disease control compared to untreated when an appropriate level of disease damage appears in untreated check leaf segments (7 to 9 days after application). The following compounds at 200 ppm in the applied formulation give at least 80% disease control in this test when compared to untreated control leaf disks under the same conditions, which show extensive disease development.” for “calculated.”

The test system of assay [4] is Glomerella lagenarium (Colletotrichum lagenarium). The experiment in a line: Fungicidal activity against Glomerella lagenarium (Colletotrichum lagenarium) liquid culture / cucumber / preventative (anthracnose). Format: cell-based. The conditions noted are these: Colletotrichum orbiculare, 72 h; 20 ppm in the applied formulation; liquid culture (PDB), growth inhibition measured photometrically 3 to 4 days after application; vs untreated control; read-out: disease control. Here is the method:
Mycelia fragments or conidia suspensions of a fungus prepared either freshly from liquid cultures of the fungus or from cryogenic storage, are directly mixed into nutrient broth. DMSO solutions of the test compound (max. 10 mg/ml) are diluted with 0.025% Tween20 by a factor of 50 and 10 μl of this solution is pipetted into a microtiter plate (96-well format). The nutrient broth containing the fungal spores/mycelia fragments is then added to give an end concentration of the tested compound. The test plates are incubated in the dark at 24° C. and 96% relative humidity. The inhibition of fungal growth is determined photometrically after 2 to 7 days, depending on the pathosystem, and percent antifungal activity relative to the untreated check is calculated.
Conidia of the fungus from cryogenic storage are directly mixed into nutrient broth (PDB—potato dextrose broth). After placing a (DMSO) solution of test compound into a microtiter plate (96-well format), the nutrient broth containing the fungal spores is added. The test plates are incubated at 24° C. and the inhibition of growth is measured photometrically 3 to 4 days after application.
The following compounds at 20 ppm in the applied formulation give at least 80% disease control in this test when compared to untreated control under the same conditions, which show extensive disease development.

For `Cc1ccc(CON=CC(C)NC(=O)c2ccc(-c3noc(C(F)(F)F)n3)cc2)cc1` (stereo not shown) [Compound 1.18, N-[1-methyl-2-(p-tolylmethoxyimino)ethyl]-4-[5-(trifluoromethyl)-1,2,4-oxadiazol-3-yl]benzamide], the pest or weed control at 200 ppm in assay [1] is ≥ 80%.

On to `CC(C=NOCc1ccc([N+](=O)[O-])cc1)NC(=O)c1ccc(-c2noc(C(F)(F)F)n2)cc1` (stereo not shown) [Compound 1.16, N-[1-methyl-2-[(4-nitrophenyl)methoxyimino]ethyl]-4-[5-(trifluoromethyl)-1,2,4-oxadiazol-3-yl]benzamide], for which the pest or weed control at 200 ppm in assay [2] and in assay [1] was ≥ 80% each time.

`COc1ccc(CON=CC(C)NC(=O)c2ccc(-c3noc(C(F)(F)F)n3)cc2)cc1` (stereo not shown) [Compound 1.19, N-[2-[(4-methoxyphenyl)methoxyimino]-1-methyl-ethyl]-4-[5-(trifluoromethyl)-1,2,4-oxadiazol-3-yl]benzamide]: the pest or weed control at 200 ppm in assay [2] and in assay [1] was ≥ 80% in each case.

In the case of `CC(CNC(=O)c1ccc(-c2noc(C(F)(F)F)n2)cc1)=NOCC=CCl` [Compound 1.121, N-[2-(3-chloroallyloxy-imino)propyl]-4-[5-(trifluoromethyl)-1,2,4-oxadiazol-3-yl]benzamide], the pest or weed control at 200 ppm in assay [3] and in assay [2] was ≥ 80% throughout. For the same molecule, the inhibition of growth at 20 ppm in assay [4] was ≥ 80%.

On to `CC(CNC(=O)c1ccc(-c2noc(C(F)(F)F)n2)cc1)=NOC(C)(C)C` [Compound 1.132, N-(2-tert-butoxyiminopropyl)-4-[5-(trifluoromethyl)-1,2,4-oxadiazol-3-yl]benzamide], for which the pest or weed control at 200 ppm in assay [3] and in assay [2] was ≥ 80% in each case. For the same molecule, the inhibition of growth at 20 ppm in assay [4] is ≥ 80%.

On to `O=C(NCC=NOCc1ccccc1F)c1ccc(-c2noc(C(F)(F)F)n2)cc1` [Compound 1.69, N-[2-[(2-fluorophenyl)methoxyimino]ethyl]-4-[5-(trifluoromethyl)-1,2,4-oxadiazol-3-yl]benzamide], for which the pest or weed control at 200 ppm in assay [3] and in assay [2] was ≥ 80% in each case. The inhibition of growth at 20 ppm in assay [4] is ≥ 80%.

Turning to `COc1ccc(CON=CCNC(=O)c2ccc(-c3noc(C(F)(F)F)n3)cc2)cc1` [Compound 1.64, N-[2-[(4-methoxyphenyl)methoxyimino]ethyl]-4-[5-(trifluoromethyl)-1,2,4-oxadiazol-3-yl]benzamide], the pest or weed control at 200 ppm in assay [3] and in assay [2] was ≥ 80% in each case. Further, in assay [4], the inhibition of growth at 20 ppm was ≥ 80%.

With `O=C(NCC=NOCc1ccccc1)c1ccc(-c2noc(C(F)(F)F)n2)cc1` [Compound 1.90, N-(2-benzyloxyimino-ethyl)-4-[5-(trifluoromethyl)-1,2,4-oxadiazol-3-yl]benzamide], the pest or weed control at 200 ppm in assay [3] and in assay [2] was ≥ 80% throughout. Also, the inhibition of growth at 20 ppm in assay [4] was ≥ 80%.

Take `COc1ccccc1CON=CCNC(=O)c1ccc(-c2noc(C(F)(F)F)n2)cc1` [Compound 1.68, N-[2-[(2-methoxyphenyl)methoxyimino]ethyl]-4-[5-(trifluoromethyl)-1,2,4-oxadiazol-3-yl]benzamide]: the pest or weed control at 200 ppm in assay [3] and in assay [2] was ≥ 80% throughout. Besides, the inhibition of growth at 20 ppm in assay [4] was ≥ 80%.

Consider `CON=CC(C)(C)NC(=O)c1ccc(-c2noc(C(F)(F)F)n2)cc1` [Compound 1.1, N-(2-methoxyimino-1,1-dimethyl-ethyl)-4-[5-(trifluoromethyl)-1,2,4-oxadiazol-3-yl]benzamide], for which the inhibition of growth at 20 ppm in assay [4] is ≥ 80%. Moreover, in assay [1], the pest or weed control at 200 ppm is ≥ 80%.

Regarding `CC(C=NOC(C)C)NC(=O)c1ccc(-c2noc(C(F)(F)F)n2)cc1` (stereo not shown) [Compound 1.50, N-(2-isopropoxyimino-1-methyl-ethyl)-4-[5-(trifluoromethyl)-1,2,4-oxadiazol-3-yl]benzamide], the pest or weed control at 200 ppm in assay [3] and in assay [2] was ≥ 80% each time. The inhibition of growth at 20 ppm in assay [4] was ≥ 80%.

In the case of `CC(C=NOC(C)(C)C)NC(=O)c1ccc(-c2noc(C(F)(F)F)n2)cc1` (stereo not shown) [Compound 1.45, N-(2-tert-butoxyimino-1-methyl-ethyl)-4-[5-(trifluoromethyl)-1,2,4-oxadiazol-3-yl]benzamide], the pest or weed control at 200 ppm in assay [3] and in assay [2] was ≥ 80% in each case. Besides, the inhibition of growth at 20 ppm in assay [4] is ≥ 80%.

For `C=C(Cl)CON=CC(C)NC(=O)c1ccc(-c2noc(C(F)(F)F)n2)cc1` (stereo not shown) [Compound 1.56, N-[2-(2-chloroallyloxy-imino)-1-methyl-ethyl]-4-[5-(trifluoromethyl)-1,2,4-oxadiazol-3-yl]benzamide], the pest or weed control at 200 ppm in assay [3] and in assay [2] was ≥ 80% in each case. In assay [4], the inhibition of growth at 20 ppm was ≥ 80%.

Consider `CC(C)=CCON=C(C)CNC(=O)c1ccc(-c2noc(C(F)(F)F)n2)cc1` [Compound 1.123, N-[2-(3-methylbut-2-enoxyimino)propyl]-4-[5-(trifluoromethyl)-1,2,4-oxadiazol-3-yl]benzamide], for which the pest or weed control at 200 ppm in assay [3] and in assay [2] was ≥ 80% in each case. For the same molecule, the inhibition of growth at 20 ppm in assay [4] is ≥ 80%.

`CC(CNC(=O)c1ccc(-c2noc(C(F)(F)F)n2)cc1)=NOC/C=C\Cl` [Compound 1.124, N-[2-[(Z)-3-chloroallyloxy]iminopropyl]-4-[5-(trifluoromethyl)-1,2,4-oxadiazol-3-yl]benzamide]: the pest or weed control at 200 ppm in assay [3] and in assay [2] was ≥ 80% each time. Moreover, the inhibition of growth at 20 ppm in assay [4] is ≥ 80%.

`CC(C=NOC1CCCCO1)NC(=O)c1ccc(-c2noc(C(F)(F)F)n2)cc1` (stereo not shown) [Compound 1.25, N-(1-methyl-2-tetrahydropyran-2-yloxyimino-ethyl)-4-[5-(trifluoromethyl)-1,2,4-oxadiazol-3-yl]benzamide]: the pest or weed control at 200 ppm in assay [3] and in assay [2] was ≥ 80% in each case. Besides, the inhibition of growth at 20 ppm in assay [4] is ≥ 80%.
